# Reference: patent publication US11021470B2, “2-substituted quinazoline compounds comprising a substituted heterocyclic group and methods of use thereof” (Araxes Pharma LLC, priority 2015, dated 2021)
# Biological target: T1, KRAS G12C 1-169, his-tagged protein, GDP-loaded (Homo sapiens, UniProt P01116, G12C)
# T1 construct: KRAS G12C 1-169, his-tagged protein, GDP-loaded
# Experiment: KRAS G12C covalent binding (% modification) by mass spectrometry, ten or three minute incubation
# Details: covalent binding to KRAS G12C, % modification after a three minute incubation period
# Description: Test compounds were prepared as 10 mM stock solutions in DMSO (Fisher cat #BP-231-100). KRAS G12C 1-169, his-tagged protein, GDP-loaded was diluted to […] in buffer (20 mM Hepes, 150 mM NaCl, 1 mM MgCl2). Compounds were tested for activity as follows:
# Compounds were diluted to 50× final test concentration in DMSO in 96-well storage plates. Compound stock solutions were vortexed before use and observed carefully for any sign of precipitation. Dilutions were as follow: • For 100 μM final compound concentration, compounds were diluted to 5000 μM (5 μl 10 mM compound stock+5 μl DMSO and mixed well by pipetting. • For 30 μM final compound concentration, compounds were diluted to 1500 μM (3 μl 10 mM compound stock+17 μl DMSO) and mixed well by pipetting. • For 10 μM final compound concentration, compounds were diluted to 500 μM (2 μl 10 mM compound stock+38 μl DMSO) and mixed well by pipetting. 49 μl of the stock protein solution was added to each well of a 96-well PCR plate (Fisher cat #1423027). 1 μl of the diluted 50× compounds were added to appropriate wells in the PCR plate using 12-channel pipettor. Reactions were mixed carefully and thoroughly by pipetting up/down with a 200 μl multi-channel pipettor. […] 5 μl of 2% formic acid (Fisher cat #A117) in DI H2O was then added to each well followed by mixing with a pipette. The plate was then resealed with aluminum seal and stored on dry ice until analyzed as described below.
# The above described assays were analyzed by mass spectrometry according to one of the following two procedures:
# The MS instrument is set to positive polarity, 2 GHz resolution, and low mass (1700) mode and allowed to equilibrate for 30 minutes. The instrument is then calibrated, switched to acquisition mode and the appropriate method loaded.
# After another 30 minute equilibration time, a blank batch (i.e., buffer) is run to ensure equipment is operating properly. The samples are thawed at 37° C. for 10 minutes, briefly centrifuged, and transfer to the bench top. Wells A1 and H12 are spiked with 1 μL 500 μM internal standard peptide, and the plates centrifuged at 2000×g for 5 minutes. The method is then run and masses of each individual well recorded.
# The masses (for which integration data is desired) for each well are pasted into the platemap and exported from the analysis. Masses for the internal standards are exported as well. The data at 50 ppm is extracted for the +19 charge state, and identity of well A1 is assigned using the internal standard spike and integrated. Peak data is exported as a TOF list and the above steps are repeated individually, for the +20, 21, 22, 23, 24, and 25 charge states.
# The masses and peak intensities of KRAS G12C protein species were measured using a Dionex RSLCnano system (Thermo Scientific) connected to a Q Exactive Plus mass spectrometer (Thermo Scientific).
# […] of sample was each loaded onto a Aeris™ 3.6 μm WIDEPORE C4 200 Å, LC Column 50×2.1 mm column maintained at 40° C. at a flow rate of 600 μl min^−1 with […] (0.1% formic acid in acetonitrile). The liquid chromatography conditions were 20% solvent B for 1 min, 20% to 60% solvent B for 1.5 min, 60% to 90% solvent for 0.5 min, 90% solvent B for 0.2 min, 90% to 20% solvent B for 0.2 min, and then equilibrated for 1.6 min before the following sample injection. The flow rate was maintained at 600 μl min^−1 throughout the sample analysis.
# The mass spectrometer was operated in profile mode at a resolution of 17500, 5 microscans, using 50 msec max injection time and an AGC target of 1e6, and a full mass range from 800-1850 m/z was recorded. The HCD trapping gas was optimized for maximum sensitivity for intact proteins. The ionization method was electrospray ionization, which used a spray voltage of 4 kV, sheath gas flow set to 50 au, auxiliary gas flow set to 10 au and sweep gas flow set to 1 au. […]
row,SMILES,Binding %
1,"C=CC(=O)N1C[C@H](C)N(c2nc(OCCc3nccc(C)n3)nc3c(F)c(-c4c(O)cccc4F)c(Cl)cc23)C[C@H]1C (atropisomer, axis not shown) [Compound 257, 1-((2R,5S)-4-(6-chloro-8-fluoro-7-((S)-2-fluoro-6-hydroxyphenyl)-2-(2-(4-methylpyrimidin-2-yl)ethoxy)quinazolin-4-yl)-2,5-dimethylpiperazin-1-yl)prop-2-en-1-one]",+++ (+++ indicates binding activity greater than 90%)
2,"C=CC(=O)N1C[C@H](C)N(c2nc(OCCc3ncc(N(C)C)cn3)nc3c(F)c(-c4c(O)cccc4F)c(Cl)cc23)C[C@H]1C (atropisomer, axis not shown) [Compound 258, 1-((2R,5S)-4-(6-chloro-2-(2-(5-(dimethylamino)pyrimidin-2-yl)ethoxy)-8-fluoro-7-((S)-2-fluoro-6-hydroxyphenyl)quinazolin-4-yl)-2,5-dimethylpiperazin-1-yl)prop-2-en-1-one]",+++ (+++ indicates binding activity greater than 90%)
3,"C=CC(=O)N1C[C@H](C)N(c2nc(OCCn3cncn3)nc3c(F)c(-c4c(O)cccc4F)c(Cl)cc23)C[C@H]1C (atropisomer, axis not shown) [Compound 259, 1-((2R,5S)-4-(2-(2-(1H-1,2,4-triazol-1-yl)ethoxy)-6-chloro-8-fluoro-7-((S)-2-fluoro-6-hydroxyphenyl)quinazolin-4-yl)-2,5-dimethylpiperazin-1-yl)prop-2-en-1-one]",+++ (+++ indicates binding activity greater than 90%)
4,"C=CC(=O)N1C[C@H](C)N(c2nc(OCCc3cncnc3)nc3c(F)c(-c4c(O)cccc4F)c(Cl)cc23)C[C@H]1C (atropisomer, axis not shown) [Compound 262, 1-((2R,5S)-4-(6-chloro-8-fluoro-7-((S)-2-fluoro-6-hydroxyphenyl)-2-(2-(pyrimidin-5-yl)ethoxy)quinazolin-4-yl)-2,5-dimethylpiperazin-1-yl)prop-2-en-1-one]",+++ (+++ indicates binding activity greater than 90%)
5,"C=CC(=O)N1C[C@H](C)N(c2nc(OCCn3ccnc3C)nc3c(F)c(-c4c(O)cccc4F)c(Cl)cc23)C[C@H]1C (atropisomer, axis not shown) [Compound 264, 1-((2R,5S)-4-(6-chloro-8-fluoro-7-((S)-2-fluoro-6-hydroxyphenyl)-2-(2-(2-methyl-1H-imidazol-1-yl)ethoxy)quinazolin-4-yl)-2,5-dimethylpiperazin-1-yl)prop-2-en-1-one]",+++ (+++ indicates binding activity greater than 90%)
6,"C=CC(=O)N1C[C@H](C)N(c2nc(OCCn3ccccc3=O)nc3c(F)c(-c4c(O)cccc4F)c(Cl)cc23)C[C@H]1C (atropisomer, axis not shown) [Compound 265, 1-(2-(4-((2S,5R)-4-acryloyl-2,5-dimethylpiperazin-1-yl)-6-chloro-8-fluoro-7-((S)-2-fluoro-6-hydroxyphenyl)quinazolin-2-yloxy)ethyl)pyridin-2(1H)-one]",+++ (+++ indicates binding activity greater than 90%)
7,"C=CC(=O)N1CCN(c2nc(OCCc3ncccn3)nc3c(F)c(-c4c(O)cccc4F)c(Cl)cc23)C[C@H]1C (atropisomer, axis not shown) [Compound 267, 1-((R)-4-(6-chloro-8-fluoro-7-((R)-2-fluoro-6-hydroxyphenyl)-2-(2-(pyrimidin-2-yl)ethoxy)quinazolin-4-yl)-2-methylpiperazin-1-yl)prop-2-en-1-one]",+ (+ indicates binding activity greater than 0% and up to 50%)
8,"C=CC(=O)N1CCN(c2nc(OCCc3ncccn3)nc3c(F)c(-c4c(O)cccc4F)c(Cl)cc23)C[C@H]1C (atropisomer, axis not shown) [Compound 268, 1-((R)-4-(6-chloro-8-fluoro-7-((S)-2-fluoro-6-hydroxyphenyl)-2-(2-(pyrimidin-2-yl)ethoxy)quinazolin-4-yl)-2-methylpiperazin-1-yl)prop-2-en-1-one]",+++ (+++ indicates binding activity greater than 90%)
9,"C=CC(=O)N1C[C@H](C)N(c2nc(N3CC(N(C)C)C3)nc3c(F)c(-c4c(O)cccc4F)c(C(F)(F)F)cc23)C[C@H]1C (atropisomer, axis not shown) [Compound 269, 1-((2R,5S)-4-(2-(3-(dimethylamino)azetidin-1-yl)-8-fluoro-7-((S)-2-fluoro-6-hydroxyphenyl)-6-(trifluoromethyl)quinazolin-4-yl)-2,5-dimethylpiperazin-1-yl)prop-2-en-1-one]",+ (+ indicates binding activity greater than 0% and up to 50%)
10,"C=CC(=O)N1C[C@H](C)N(c2nc(N3CC(N(C)C)C3)nc3c(F)c(-c4c(O)cccc4F)c(C(F)(F)F)cc23)C[C@H]1C (atropisomer, axis not shown) [Compound 270, 1-((2R,5S)-4-(2-(3-(dimethylamino)azetidin-1-yl)-8-fluoro-7-((R)-2-fluoro-6-hydroxyphenyl)-6-(trifluoromethyl)quinazolin-4-yl)-2,5-dimethylpiperazin-1-yl)prop-2-en-1-one]",+++ (+++ indicates binding activity greater than 90%)
11,"C=CC(=O)N1CCN(c2nc(N3CC(N(C)C)C3)nc3c(F)c(-c4c(O)cccc4F)c(C(F)(F)F)cc23)C[C@H]1C (atropisomer, axis not shown) [Compound 271, 1-((R)-4-(2-(3-(dimethylamino)azetidin-1-yl)-8-fluoro-7-((S)-2-fluoro-6-hydroxyphenyl)-6-(trifluoromethyl)quinazolin-4-yl)-2-methylpiperazin-1-yl)prop-2-en-1-one]",+ (+ indicates binding activity greater than 0% and up to 50%)
12,"C=CC(=O)N1CCN(c2nc(N3CC(N(C)C)C3)nc3c(F)c(-c4c(O)cccc4F)c(C(F)(F)F)cc23)C[C@H]1C (atropisomer, axis not shown) [Compound 272, 1-((R)-4-(2-(3-(dimethylamino)azetidin-1-yl)-8-fluoro-7-((R)-2-fluoro-6-hydroxyphenyl)-6-(trifluoromethyl)quinazolin-4-yl)-2-methylpiperazin-1-yl)prop-2-en-1-one]",+++ (+++ indicates binding activity greater than 90%)
13,"C=CC(=O)N1C[C@H](C)N(c2nc(OCCn3ccnc3C3CC3)nc3c(F)c(-c4c(O)cccc4F)c(Cl)cc23)C[C@H]1C (atropisomer, axis not shown) [Compound 275, 1-((2R,5S)-4-(6-chloro-2-(2-(2-cyclopropyl-1H-imidazol-1-yl)ethoxy)-8-fluoro-7-((S)-2-fluoro-6-hydroxyphenyl)quinazolin-4-yl)-2,5-dimethylpiperazin-1-yl)prop-2-en-1-one]",+++ (+++ indicates binding activity greater than 90%)
14,"C=CC(=O)N1C[C@H](C)N(c2nc(OCCn3ccnc3CC)nc3c(F)c(-c4c(O)cccc4F)c(Cl)cc23)C[C@H]1C (atropisomer, axis not shown) [Compound 277, 1-((2R,5S)-4-(6-chloro-2-(2-(2-ethyl-1H-imidazol-1-yl)ethoxy)-8-fluoro-7-((S)-2-fluoro-6-hydroxyphenyl)quinazolin-4-yl)-2,5-dimethylpiperazin-1-yl)prop-2-en-1-one]",+++ (+++ indicates binding activity greater than 90%)
